According to PMC9127750, “Structure-based design of CDC42 effector interaction inhibitors for the treatment of cancer” (Cell reports, 2022):
Several values for one entry are separate records, joined by “and”; a condition that tells them apart may be missing. Equal entries are not always repeated.

Tested on: WM3248 melanoma cells, 486 antibodies
Experiment: Reverse phase protein arrays (RPPA)
Type: cell-based, Human
Conditions: 5 uM, single replicates
Source text: Pellets were snap frozen in liquid nitrogen and shipped to MD Anderson Cancer Center core RPPA facility for RPPA analysis (Table S5). Three biological replicates for each sample were generated.
Nomenclatures on the RPPA heatmaps: name_of_antibody.species_of_antibody.status_of_antibody. V - antibody validated; C - validation of antibody in progress; Q - antibody nonspecific; E – under evaluation; antibodies raised in M - mouse, G - goat, R - rabbit, or T - rat.

CN(C)c1cccc(Nc2cc(-c3ccccc3)nc(C3CCNCC3)n2)c1 [ARN22089, N1,N1-dimethyl-N3-(6-phenyl-2-(piperidin-4-yl)pyrimidin-4-yl)benzene-1,3-diamine]
RPPA RIP3.R.C: 0.966 and 1.053 and 1.158
RPPA RIP.R.C: 1.003 and 0.876 and 0.747
RPPA RPA32.R.V: 0.852 and 0.696
RPPA RPA32_pS4_S8.R.C: 1.136 and 0.833 and 0.517
RPPA RRM1.R.C: 0.879 and 1.059 and 1.047
RPPA RRM2.R.C: 0.859 and 1.229 and 0.937
RPPA RSK1.R.V: 1.126 and 0.877 and 0.665
RPPA RSK.R.C: 1.019 and 0.958
RPPA Rab11.R.C: 0.952 and 1.156 and 1.116
RPPA Rab25.R.V: 0.918 and 1.136 and 1.098
RPPA Rad17_pS645.R.V: 0.999 and 1.251 and 0.988
RPPA Rad23A.R.C: 0.955 and 1.149 and 0.502
RPPA Rad50.R.V: 1.003 and 1.194 and 0.770
RPPA Rad51.R.C: 1.003 and 1.032 and 0.980
RPPA Raptor.R.V: 0.960 and 1.161 and 0.962
RPPA Rb.M.Q: 1.194 and 0.869 and 0.844
RPPA Rb_pS807_S811.R.V: 1.080 and 1.099 and 0.998
RPPA Rheb.M.C: 1.062 and 0.914 and 0.936
RPPA Rictor.R.C: 1.000 and 1.032 and 1.026
RPPA Rictor_pT1135.R.V: 1.014 and 1.199 and 1.106
RPPA S6.M.V: 1.062 and 0.879 and 1.272
RPPA S6_pS235_S236.R.V: 1.439 and 1.242 and 1.218
RPPA S6_pS240_S244.R.V: 1.857 and 2.231 and 1.126
RPPA SCD.M.V: 1.065 and 0.945 and 1.006
RPPA SDHA.R.V: 0.933 and 1.191 and 1.108
RPPA SF2.R.V: 1.031 and 0.941 and 1.112
RPPA SFRP1.R.V: 1.004 and 0.892 and 0.990
RPPA SGK1.R.V: 1.163 and 1.199 and 0.933
RPPA SGK3.R.V: 0.990 and 0.992 and 0.997
RPPA SHP2.R.V: 1.046 and 0.930 and 1.005
RPPA SHP.2_pY542.R.C: 0.901 and 0.851
RPPA SIRPαR.V: 1.213 and 0.860 and 0.910
RPPA SLC1A5.R.C: 0.927 and 0.907 and 0.859
RPPA SOD1.M.V: 0.996 and 0.939
RPPA SOD2.R.V: 1.034 and 0.952 and 1.114
RPPA SOX7.R.V: 0.983 and 0.930 and 0.848
RPPA STING.R.V: 0.930 and 1.130 and 0.957
RPPA Shc_pY317.R.C: 0.667 and 0.896
RPPA Slfn11.G.C: 0.877 and 0.828 and 0.650
RPPA Smac.M.Q: 0.952 and 1.016 and 0.799
RPPA Smad1.R.V: 0.992 and 1.196 and 1.151
RPPA Smad3.R.V: 0.939 and 1.113 and 0.837
RPPA Smad4.R.V: 1.058 and 0.905 and 1.133
RPPA Snail.M.Q: 1.030 and 0.955 and 1.052
RPPA Sox2.R.V: 0.983 and 0.974 and 1.000
RPPA Sox17.R.V: 0.873 and 0.902
RPPA Src.M.V: 1.031 and 1.029 and 1.140
RPPA Src_pY416.R.V: 1.004 and 0.964
RPPA Src_pY527.R.V: 0.980 and 1.499
RPPA Stat1_pY701.R.V: 1.025 and 0.919 and 0.955
RPPA Stat3.R.C: 1.026 and 1.019
RPPA Stat3_pY705.R.C: 1.097 and 0.794 and 0.850
RPPA Stat5a.R.V: 0.973 and 1.401 and 1.115
RPPA Stathmin.1.R.V: 0.937 and 0.952 and 1.084
RPPA Syk.M.V: 0.889 and 1.061 and 1.011
RPPA Synaptophysin.R.C: 1.047 and 0.925 and 1.079
RPPA TAZ.R.V: 1.033 and 0.986 and 0.848
RPPA TEAD.R.C: 0.869 and 1.210 and 0.956
RPPA TFAM.R.V: 0.929 and 1.064 and 1.050
RPPA TFRC.R.V: 0.850 and 0.994
RPPA TIGAR.R.V: 1.007 and 1.053
RPPA TRAP1.M.V: 1.020 and 0.986
RPPA TRIM24.R.C: 1.055 and 0.901
RPPA TRIM25.R.C: 0.917 and 1.142 and 1.151
RPPA TRIP13.R.V: 1.080 and 0.849 and 0.914
RPPA Tau.M.C: 0.914 and 1.000
RPPA Transglutaminase.M.V: 1.130 and 0.535
RPPA level HLA.DQA1.R.V: 0.968 and 1.061 and 0.815
RPPA level HLA.DR.DP.DQ.DX.R.C: 0.974 and 0.976 and 0.833
RPPA level HMHA1.R.V: 1.021 and 1.238 and 1.140
RPPA level HNRNPK.R.V: 0.971 and 0.906
RPPA level HSP27.M.C: 1.164 and 1.033
RPPA level HSP27_pS82.R.V: 0.984 and 1.234 and 1.120
RPPA level HSP60.R.V: 0.905 and 1.108
RPPA level HSP70.R.C: 0.973 and 0.970
RPPA level Hexokinase.I.R.C: 0.945 and 0.709
RPPA level Hexokinase.II.R.V: 1.124 and 0.975 and 0.876
RPPA level Hif.1αR.C: 1.102 and 1.349 and 0.701
RPPA level Histone.H3.R.V: 0.982 and 1.330 and 0.576
RPPA level Histone.H3_pS10.R.V: 0.692 and 0.713
RPPA level IDO.R.C: 0.970 and 1.199 and 1.031
